Experimental data published in patent publication US10155007B2, “Synthesis method for improved tenofovir disoproxil fumarate using ion-exchange resin and method for preparing oral dissolving film form using the same” (Firson, priority 2014, dated 2018).

Experiment: Solubility of tenofovir in the aqueous neutralization solution
Format: physicochemical
Protocol: The present invention also relates to a method of adding a defined proportion of calcium hydride to magnesium butoxide that is a catalyst commonly used in the synthesis of DEPMPA from HPA to shorten the reaction time from 18 hours to 6 hours or less and cause the production of toluene calcium sulfonate to reduce highly deliquescent substances, and using an ion-exchange resin (Dowex 50W, sulfonic acid cation exchange resin) after neutralization with a counter-alkali solution in the dealcoholizing hydrolysis of the ester compound into tenofovir, thereby to reach a precise isoelectric point (pH 3.2) and further increase the synthesis yield of tenofovir. Generally, when the pH value is 2.5 to 3.5 in the neutralization, tenofovir (H2O, one-molecule crystal water) is dissolved in the aqueous solution at about 7 percent. When the neutralization is perfectly performed with the ion-exchange resin, the solubility of tenofovir can be reduced to 4 percent or below.

solubility of tenofovir (neutralization perfectly performed with the ion-exchange resin): ≤ 4%
tenofovir dissolved in the aqueous solution (pH 2.5 to 3.5 in the neutralization, tenofovir H2O, one-molecule crystal water): about 7%
Compound: C[C@H](Cn1cnc2c(N)ncnc21)OCP(=O)(O)O [tenofovir, (R)-9-[2-(phosphonomethoxy)propyl]adenine]
